Reference: PubChem BioAssay (NCI)
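96-well plates; 48 h exposure; 5 concentrations. Endpoints by linear interpolation between flanking doses. Not reached: highest tested concentration assigned. TGI marks complete inhibition of growth.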

Tests used:
Assay in all cases: inhibition of tumour cell growth, NCI panel, 48 h
786-0 renal = tested on: 786-0 renal
A498 renal = tested on: A498 renal
A549 NSCLC = tested on: A549 NSCLC
ACHN renal = tested on: ACHN renal
BT-549 breast = tested on: BT-549 breast
CAKI-1 renal = tested on: CAKI-1 renal
CCRF-CEM leukemia = tested on: CCRF-CEM leukemia
COLO 205 colon = tested on: COLO 205 colon
EKVX NSCLC = tested on: EKVX NSCLC
HCC-2998 colon = tested on: HCC-2998 colon
HCT-116 colon = tested on: HCT-116 colon
HCT-15 colon = tested on: HCT-15 colon
HOP-62 NSCLC = tested on: HOP-62 NSCLC
HOP-92 NSCLC = tested on: HOP-92 NSCLC
HS 578T breast = tested on: HS 578T breast
HT29 colon = tested on: HT29 colon
IGROV1 ovarian = tested on: IGROV1 ovarian
K-562 leukemia = tested on: K-562 leukemia
KM12 colon = tested on: KM12 colon
LOX IMVI melanoma = tested on: LOX IMVI melanoma
M14 melanoma = tested on: M14 melanoma
MALME-3M melanoma = tested on: MALME-3M melanoma
MCF7 breast = tested on: MCF7 breast
MDA-MB-231 breast = tested on: MDA-MB-231 breast
MDA-MB-435 = tested on: MDA-MB-435
MDA-N = tested on: MDA-N
MOLT-4 leukemia = tested on: MOLT-4 leukemia
NCI-H226 lung = tested on: NCI-H226 lung
NCI-H460 lung = tested on: NCI-H460 lung
NCI-H522 lung = tested on: NCI-H522 lung
NCI/ADR-RES ovarian = tested on: NCI/ADR-RES ovarian
OVCAR-4 ovarian = tested on: OVCAR-4 ovarian
OVCAR-5 ovarian = tested on: OVCAR-5 ovarian
OVCAR-8 ovarian = tested on: OVCAR-8 ovarian
PC-3 prostate = tested on: PC-3 prostate
RXF 393 renal = tested on: RXF 393 renal
SF-268 CNS = tested on: SF-268 CNS
SF-295 CNS = tested on: SF-295 CNS
SF-539 CNS = tested on: SF-539 CNS
SK-MEL-2 melanoma = tested on: SK-MEL-2 melanoma
SK-MEL-28 melanoma = tested on: SK-MEL-28 melanoma
SK-MEL-5 melanoma = tested on: SK-MEL-5 melanoma
SK-OV-3 ovarian = tested on: SK-OV-3 ovarian
SN12C renal = tested on: SN12C renal
SNB-19 CNS = tested on: SNB-19 CNS
SNB-75 CNS = tested on: SNB-75 CNS
SW-620 colon = tested on: SW-620 colon
TK-10 renal = tested on: TK-10 renal
U251 CNS = tested on: U251 CNS
UACC-257 melanoma = tested on: UACC-257 melanoma
UACC-62 melanoma = tested on: UACC-62 melanoma
DU-145 prostate = tested on: DU-145 prostate
HL-60(TB) leukemia = tested on: HL-60(TB) leukemia
NCI-H23 lung = tested on: NCI-H23 lung
OVCAR-3 ovarian = tested on: OVCAR-3 ovarian
RPMI-8226 leukemia = tested on: RPMI-8226 leukemia
UO-31 renal = tested on: UO-31 renal

`COc1cccc(NC(=O)c2c(SC)c(C#N)c(=O)n(N)c2N)c1` was tested, and the TGI (786-0 renal) was > 100 µM, the TGI (A498 renal) was > 100 µM and the TGI (A549 NSCLC) was > 100 µM. The TGI (ACHN renal) was > 100 µM, the TGI (BT-549 breast) was > 100 µM and the TGI (CAKI-1 renal) was > 100 µM. The TGI (CCRF-CEM leukemia) was > 100 µM, the TGI (COLO 205 colon) was > 100 µM and the TGI (EKVX NSCLC) was > 100 µM. The TGI (HCC-2998 colon) was > 100 µM, the TGI (HCT-116 colon) was > 100 µM and the TGI (HCT-15 colon) was > 100 µM. For the same molecule, the TGI (HOP-62 NSCLC) was > 100 µM, the TGI (HOP-92 NSCLC) was > 100 µM and the TGI (HS 578T breast) was > 100 µM. The TGI (HT29 colon) was > 100 µM, the TGI (IGROV1 ovarian) was > 100 µM and the TGI (K-562 leukemia) was > 100 µM. The TGI (KM12 colon) was > 100 µM, the TGI (LOX IMVI melanoma) was > 100 µM and the TGI (M14 melanoma) was > 100 µM. The TGI (MALME-3M melanoma) was > 100 µM, the TGI (MCF7 breast) was > 100 µM and the TGI (MDA-MB-231 breast) was > 100 µM. For the same molecule, the TGI (MDA-MB-435) was > 100 µM, the TGI (MDA-N) was > 100 µM and the TGI (MOLT-4 leukemia) was > 100 µM. The TGI (NCI-H226 lung) was > 100 µM, the TGI (NCI-H460 lung) was > 100 µM and the TGI (NCI-H522 lung) was > 100 µM. The TGI (NCI/ADR-RES ovarian) was > 100 µM, the TGI (OVCAR-4 ovarian) was > 100 µM and the TGI (OVCAR-5 ovarian) was > 100 µM. The TGI (OVCAR-8 ovarian) was > 100 µM, the TGI (PC-3 prostate) was > 100 µM and the TGI (RXF 393 renal) was > 100 µM. The TGI (SF-268 CNS) was > 100 µM, the TGI (SF-295 CNS) was > 100 µM and the TGI (SF-539 CNS) was > 100 µM. The TGI (SK-MEL-2 melanoma) was > 100 µM, the TGI (SK-MEL-28 melanoma) was > 100 µM and the TGI (SK-MEL-5 melanoma) was > 100 µM. For the same molecule, the TGI (SK-OV-3 ovarian) was > 100 µM, the TGI (SN12C renal) was > 100 µM and the TGI (SNB-19 CNS) was 98.6 µM. The TGI (SNB-75 CNS) was 81.3 µM, the TGI (SW-620 colon) was > 100 µM and the TGI (TK-10 renal) was > 100 µM. The TGI (U251 CNS) was > 100 µM, the TGI (UACC-257 melanoma) was > 100 µM and the TGI (UACC-62 melanoma) was > 100 µM.
`Nc1nc(Cl)c(/C=N\O)c(NCC2(CO)CC(=O)C2)n1` was tested, and the TGI (786-0 renal) was > 100 µM, the TGI (A498 renal) was > 100 µM and the TGI (A549 NSCLC) was > 100 µM. The TGI (ACHN renal) was > 100 µM, the TGI (BT-549 breast) was > 100 µM and the TGI (CAKI-1 renal) was > 100 µM. The TGI (CCRF-CEM leukemia) was > 100 µM, the TGI (COLO 205 colon) was > 100 µM and the TGI (DU-145 prostate) was > 100 µM. For the same molecule, the TGI (EKVX NSCLC) was > 100 µM, the TGI (HCC-2998 colon) was > 100 µM and the TGI (HCT-116 colon) was > 100 µM. For the same molecule, the TGI (HCT-15 colon) was > 100 µM, the TGI (HL-60(TB) leukemia) was > 100 µM and the TGI (HOP-62 NSCLC) was > 100 µM. For the same molecule, the TGI (HOP-92 NSCLC) was > 100 µM, the TGI (HS 578T breast) was 55.6 µM and the TGI (HT29 colon) was > 100 µM. The TGI (IGROV1 ovarian) was 70.4 µM, the TGI (K-562 leukemia) was > 100 µM and the TGI (KM12 colon) was 82.1 µM. The TGI (LOX IMVI melanoma) was > 100 µM, the TGI (MALME-3M melanoma) was > 100 µM and the TGI (MCF7 breast) was > 100 µM. For the same molecule, the TGI (MDA-MB-231 breast) was > 100 µM, the TGI (MDA-MB-435) was > 100 µM and the TGI (MDA-N) was > 100 µM. The TGI (MOLT-4 leukemia) was > 100 µM, the TGI (NCI-H226 lung) was > 100 µM and the TGI (NCI-H23 lung) was > 100 µM. The TGI (NCI-H460 lung) was > 100 µM, the TGI (NCI-H522 lung) was > 100 µM and the TGI (NCI/ADR-RES ovarian) was > 100 µM. The TGI (OVCAR-3 ovarian) was > 100 µM, the TGI (OVCAR-4 ovarian) was > 100 µM and the TGI (OVCAR-5 ovarian) was > 100 µM. For the same molecule, the TGI (OVCAR-8 ovarian) was > 100 µM, the TGI (PC-3 prostate) was > 100 µM and the TGI (RPMI-8226 leukemia) was > 100 µM. For the same molecule, the TGI (RXF 393 renal) was > 100 µM, the TGI (SF-268 CNS) was > 100 µM and the TGI (SF-295 CNS) was > 100 µM. For the same molecule, the TGI (SF-539 CNS) was > 100 µM, the TGI (SK-MEL-28 melanoma) was > 100 µM and the TGI (SK-MEL-5 melanoma) was > 100 µM. For the same molecule, the TGI (SN12C renal) was > 100 µM, the TGI (SNB-19 CNS) was > 100 µM and the TGI (SNB-75 CNS) was > 100 µM. The TGI (SW-620 colon) was > 100 µM, the TGI (TK-10 renal) was > 100 µM and the TGI (U251 CNS) was > 100 µM. For the same molecule, the TGI (UACC-257 melanoma) was > 100 µM and the TGI (UO-31 renal) was > 100 µM.
With `COc1ccc(COC(=O)NNC(=O)C2CSC(c3ccccc3)N2C(C)=O)cc1` (configuration not stated) the TGI (786-0 renal) was > 100 µM, the TGI (A498 renal) was > 100 µM and the TGI (A549 NSCLC) was > 100 µM. For the same molecule, the TGI (ACHN renal) was > 100 µM, the TGI (BT-549 breast) was > 100 µM and the TGI (CAKI-1 renal) was > 100 µM. For the same molecule, the TGI (CCRF-CEM leukemia) was > 100 µM, the TGI (DU-145 prostate) was > 100 µM and the TGI (EKVX NSCLC) was > 100 µM. The TGI (HCC-2998 colon) was > 100 µM, the TGI (HCT-116 colon) was > 100 µM and the TGI (HCT-15 colon) was > 100 µM. The TGI (HL-60(TB) leukemia) was > 100 µM, the TGI (HOP-62 NSCLC) was > 100 µM and the TGI (HOP-92 NSCLC) was > 100 µM. The TGI (HS 578T breast) was > 100 µM, the TGI (HT29 colon) was > 100 µM and the TGI (IGROV1 ovarian) was > 100 µM. For the same molecule, the TGI (K-562 leukemia) was > 100 µM, the TGI (KM12 colon) was > 100 µM and the TGI (LOX IMVI melanoma) was > 100 µM. The TGI (M14 melanoma) was > 100 µM, the TGI (MALME-3M melanoma) was > 100 µM and the TGI (MCF7 breast) was > 100 µM. The TGI (MDA-MB-435) was > 100 µM, the TGI (MDA-N) was > 100 µM and the TGI (MOLT-4 leukemia) was > 100 µM. For the same molecule, the TGI (NCI-H226 lung) was > 100 µM, the TGI (NCI-H23 lung) was > 100 µM and the TGI (NCI-H460 lung) was > 100 µM. For the same molecule, the TGI (NCI-H522 lung) was > 100 µM, the TGI (NCI/ADR-RES ovarian) was > 100 µM and the TGI (OVCAR-3 ovarian) was > 100 µM. The TGI (OVCAR-4 ovarian) was > 100 µM, the TGI (OVCAR-5 ovarian) was > 100 µM and the TGI (OVCAR-8 ovarian) was > 100 µM. For the same molecule, the TGI (PC-3 prostate) was > 100 µM, the TGI (RPMI-8226 leukemia) was > 100 µM and the TGI (SF-268 CNS) was > 100 µM. For the same molecule, the TGI (SF-295 CNS) was > 100 µM, the TGI (SF-539 CNS) was > 100 µM and the TGI (SK-MEL-2 melanoma) was > 100 µM. The TGI (SK-MEL-5 melanoma) was > 100 µM, the TGI (SK-OV-3 ovarian) was > 100 µM and the TGI (SN12C renal) was > 100 µM. The TGI (SNB-19 CNS) was > 100 µM, the TGI (SNB-75 CNS) was > 100 µM and the TGI (SW-620 colon) was > 100 µM. For the same molecule, the TGI (TK-10 renal) was > 100 µM, the TGI (U251 CNS) was > 100 µM and the TGI (UACC-257 melanoma) was > 100 µM. The TGI (UACC-62 melanoma) was > 100 µM and the TGI (UO-31 renal) was > 100 µM.
